Data taken from paper PMC6627609, “Targeting Quorum Sensing: High-Throughput Screening to Identify Novel LsrK Inhibitors” (International Journal of Molecular Sciences, 2019).
Where a name gives a salt, the structure may show the parent alone.

Biological target: LsrK (Salmonella typhimurium, UniProt Q8ZKQ6)
Experiment: biochemical
Assay type: biochemical, S. typhimurium
Details: for Inhibition (%): 50 µM

LsrK, sequence (Q8ZKQ6 whole entry): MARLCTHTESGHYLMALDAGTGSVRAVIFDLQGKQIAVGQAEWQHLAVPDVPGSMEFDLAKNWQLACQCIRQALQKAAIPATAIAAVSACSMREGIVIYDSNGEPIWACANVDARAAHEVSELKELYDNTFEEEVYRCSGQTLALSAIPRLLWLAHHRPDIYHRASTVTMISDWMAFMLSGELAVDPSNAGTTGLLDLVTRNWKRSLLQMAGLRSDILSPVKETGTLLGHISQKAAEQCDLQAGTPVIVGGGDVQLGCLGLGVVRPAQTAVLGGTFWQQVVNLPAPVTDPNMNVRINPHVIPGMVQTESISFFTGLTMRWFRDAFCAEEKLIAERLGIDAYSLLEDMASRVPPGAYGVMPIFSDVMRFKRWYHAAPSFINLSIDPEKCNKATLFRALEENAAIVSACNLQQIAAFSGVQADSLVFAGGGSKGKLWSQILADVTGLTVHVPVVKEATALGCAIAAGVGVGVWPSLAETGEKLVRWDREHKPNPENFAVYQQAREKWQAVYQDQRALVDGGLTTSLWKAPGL

Structure (SMILES) | inhibition at 50 µM | also measured
C=C[C@H]1CN2CC[C@H]1C[C@H]2[C@H](OC(=O)OCC)c1ccnc2ccc(OC)cc12 [QUININE ETHYL CARBONATE] | 3% | –
COCCCOc1ccnc(C[S+]([O-])c2nc3ccccc3[nH]2)c1C (stereo not shown) [RABEPRAZOLE SODIUM] | 0% | –
O=C(c1ccc(OCCN2CCCCC2)cc1)c1c(-c2ccc(O)cc2)sc2cc(O)ccc12 [RALOXIFENE HYDROCHLORIDE] | 0% | –
CNC(=C[N+](=O)[O-])NCCSCc1ccc(CN(C)C)o1 [RANITIDINE] | 1% | –
COC(=O)[C@H]1[C@H]2C[C@@H]3c4[nH]c5cc(OC)ccc5c4CCN3C[C@H]2C[C@@H](OC(=O)c2cc(OC)c(OC)c(OC)c2)[C@@H]1OC [RESERPINE] | 1% | –
CC(=O)Oc1cccc(O)c1 [RESORCINOL MONOACETATE] | 1% | –
COc1ccc(/C=C/c2cc(O)cc(O)c2)cc1 [RESVERATROL 4'-METHYL ETHER] | 2% | –
CC1=C(/C=C/C(C)=C/C=C/C(C)=C/CO)C(C)(C)CCC1 [RETINOL] | 0% | –
CCCCCCCCCCCCCCCC(=O)OC/C=C(C)/C=C/C=C(C)/C=C/C1=C(C)CCCC1(C)C [RETINYL PALMITATE] | 15% | –
C=C(C)CCCC(C)CCOC(C)=O (stereo not shown) [RHODINYL ACETATE] | – | Inhibition (%): 0
C[C@@H]1O[C@@H](O[C@H]2[C@H](Oc3cc(O)c4c(=O)cc(-c5ccc(O)cc5)oc4c3)O[C@H](CO)[C@@H](O)[C@@H]2O)[C@H](O)[C@H](O)[C@H]1O [RHOIFOLIN] | 2% | –
COC1=C(O)C(=O)c2c(cc3oc(C(C)=O)c(O)c3c2O)C1=O [RHO[…]] | 22% | –
NC(=O)c1ncn([C@@H]2O[C@H](CO)[C@@H](O)[C@H]2O)n1 [RIBAVIRIN] | 5% | –
Cc1cc2nc3c(=O)[nH]c(=O)nc-3n(C[C@H](O)[C@H](O)[C@H](O)COP(=O)([O-])O)c2cc1C.[Na+] [RIBOFLAVIN 5-PHOSPHATE SODIUM] | – | Inhibition (%): 1
CO[C@H]1/C=C/O[C@@]2(C)Oc3c(C)c(O)c4c(O)c(c(/C=N/N5CCN(C)CC5)c(O)c4c3C2=O)NC(=O)/C(C)=C\C=C\[C@H](C)[C@H](O)[C@@H](C)[C@@H](O)[C@@H](C)[C@H](OC(C)=O)[C@@H]1C [RIFAMPIN] | 18% | –
CO[C@H]1/C=C/O[C@@]2(C)Oc3c(C)c(O)c4c(O)c(c5c(nc6cc(C)ccn65)c4c3C2=O)NC(=O)/C(C)=C\C=C\[C@H](C)[C@H](O)[C@@H](C)[C@@H](O)[C@@H](C)[C@H](OC(C)=O)[C@@H]1C [RIFAXIMIN] | 1% | –
O=P([O-])(O)C(O)(Cc1cccnc1)P(=O)(O)O.[Na+] [RISEDRONATE SODIUM HYDRATE] | – | Inhibition (%): 2
Cc1nc2sccn2c(=O)c1CCN1CCC(=C(c2ccc(F)cc2)c2ccc(F)cc2)CC1 [RITANSERIN] | 3% | –
CN(C)CCc1c[nH]c2ccc(Cn3cncn3)cc12 [RIZATRIPTAN BENZOATE] | 1% | –
COc1ccc(-c2c(O)c3c(OC)c4c(cc3oc2=O)OC(C)(C)C=C4)cc1 [ROBUSTIC ACID] | 111% | –
COc1ccc(C2CNC(=O)C2)cc1OC1CCCC1 (stereo not shown) [ROLIPRAM] | 1% | –
CN(C)[C@@H]1C(O)=C(C(=O)NCN2CCCC2)C(=O)[C@@]2(O)C(O)=C3C(=O)c4c(O)cccc4[C@@](C)(O)[C@H]3C[C@@H]12 [ROLITETRACYCLINE] | 5% | –

Structure (SMILES) | inhibition at 50 µM | also measured
O=C(/C=C/c1ccc(O)c(O)c1)O[C@H](Cc1ccc(O)c(O)c1)C(=O)O [ROSMARINIC ACID] | 2% | –
CC(C)c1nc(N(C)S(C)(=O)=O)nc(-c2ccc(F)cc2)c1/C=C/[C@@H](O)C[C@@H](O)CC(=O)O [ROSUVASTATIN CALCIUM] | 1% | –
CC[C@@H](C(=O)[C@@H](C)[C@@H](O)[C@H](C)[C@@H]1O[C@@H]([C@@H](CC)C(=O)O)CC[C@@H]1C)[C@H]1O[C@]2(C=C[C@@H](O)[C@]3(CC[C@@](C)([C@H]4CC[C@](O)(CC)[C@H](C)O4)O3)O2)[C@H](C)C[C@@H]1C [SALINOMYCIN. SODIUM] | 2% | –
C[n+]1cc2c3c(ccc2c2ccc4cc5c(cc4c21)OCO5)OCO3 [SANGUINARINE SULFATE] | 84% | –
COc1ccc2c(c1)OC/C(=C\c1ccc(OC)c(O)c1)C2=O [SAPPANONE A DIMETHYL ETHER] | 2% | –
O=C(O)c1cn(-c2ccc(F)cc2)c2cc(N3CCNCC3)c(F)cc2c1=O [SARAFLOXACIN HYDROCHLORIDE] | 0% | –
COc1cc2ccc(=O)oc2cc1O [SCOPOLETIN] | 1% | –
CO[C@H]1C[C@H](O[C@@H]2/C(C)=C/C[C@@H]3C[C@@H](C[C@]4(CC[C@H](C)[C@@H](C5CCCCC5)O4)O3)OC(=O)[C@@H]3C=C(C)/C(=N/O)[C@H]4OC/C(=C\C=C\[C@@H]2C)[C@]43O)O[C@@H](C)[C@@H]1O [SELAMECTIN] | 0% | –
CC1CCC(NC(=O)N(CCCl)N=O)CC1 (stereo not shown) [SEMUSTINE] | 0% | –
O=C(O)c1cc(O)c2c(c1)[C@H]([C@H]1c3cc(C(=O)O)cc(O)c3C(=O)c3c(O[C@@H]4O[C@H](CO)[C@@H](O)[C@H](O)[C@H]4O)cccc31)c1cccc(O[C@@H]3O[C@H](CO)[C@@H](O)[C@H](O)[C@H]3O)c1C2=O [SENNOSIDE A] | 0% | –
O=C(O)C1=C[C@@H](O)[C@@H](O)[C@H](O)C1 [SHIKIMIC ACID] | 1% | –
CC(C)CC(N(C)C)C1(c2ccc(Cl)cc2)CCC1.Cl (stereo not shown) [SIBUTRAMINE HYDROCHLORIDE] | – | Inhibition (%): 1
COc1cc(C2Oc3cc([C@H]4Oc5cc(O)cc(O)c5C(=O)[C@@H]4O)ccc3OC2CO)ccc1O (stereo partly shown) [SILIBININ] | 27% | –
CCC(C)(C)C(=O)O[C@H]1C[C@@H](C)C=C2C=C[C@H](C)[C@H](CC[C@@H]3C[C@@H](O)CC(=O)O3)[C@H]21 [SIMVASTATIN] | 3% | –
CO[C@H]1C[C@@H]2CC[C@@H](C)[C@@](O)(O2)C(=O)C(=O)N2CCCC[C@H]2C(=O)O[C@H]([C@H](C)C[C@@H]2CC[C@@H](O)[C@H](OC)C2)CC(=O)[C@H](C)/C=C(\C)[C@@H](O)[C@@H](OC)C(=O)[C@H](C)C[C@H](C)/C=C/C=C/C=C/1C [SIROLIMUS] | 4% | –
Cc1c[nH]c2ccccc12 [SKATOLE] | – | Inhibition (%): 1
O=C(O)CCCO [SODIUM OXYBATE] | 1% | –
CCCCC(CC)CCC(CC(C)C)OS(=O)(=O)O (stereo not shown) [SODIUM TETRADECYL SULFATE] | 98% | –
CC(C)=CCC/C(C)=C/CC/C(C)=C/CC/C(C)=C/CC/C(C)=C/CC/C(C)=C/CC/C(C)=C/CC/C(C)=C/CC/C(C)=C/CO [SOLANESOL] | – | Inhibition (%): 1
C[C@@H]1CC[C@@]2(NC1)O[C@H]1C[C@H]3[C@@H]4CC=C5C[C@@H](O)CC[C@]5(C)[C@H]4CC[C@]3(C)[C@H]1[C@@H]2C [SOLASODINE] | 1% | –
CC1=CC(=O)[C@H]2C(C)(C)CCC[C@]2(C)[C@@]1(O)CCc1ccoc1 [SOLIDAGENONE] | – | Inhibition (%): 0
C1CCN2C[C@@H]3C[C@@H](CN4CCCC[C@@H]34)[C@H]2C1.I [SPARTEINE HYDROIODIDE] | – | Inhibition (%): 1

Structure (SMILES) | inhibition at 50 µM | also measured
NCCCNCCCCNCCCN [SPERMINE] | 2% | –
COc1cc(C)c2c(c1C=O)Oc1c(c(C)c(O)c3c1C(O)OC3=O)OC2=O (stereo not shown) [STICTIC ACID] | 119% | IC50: 3 µM
CC[C@H](/C=C/[C@@H](C)[C@H]1CC[C@H]2[C@@H]3CC=C4C[C@@H](O)CC[C@]4(C)[C@H]3CC[C@]12C)C(C)C [STIGMASTEROL] | 1% | –
C[C@]12CC[C@H]3[C@@H](CC[C@]4(O)C[C@@H](O)CC[C@]34C=O)[C@@]1(O)CC[C@@H]2C1=CC(=O)OC1 [STROPHANTHIDIN] | 0% | –
OC[C@H]1O[C@H](O[C@]2(CCl)O[C@H](CCl)[C@@H](O)[C@@H]2O)[C@H](O)[C@@H](O)[C@H]1Cl [SUCRALOSE] | 3% | –
CC(=O)NS(=O)(=O)c1ccc(N)cc1 [SULFACETAMIDE] | 0% | –
COc1ncnc(NS(=O)(=O)c2ccc(N)cc2)c1OC [SULFADOXINE] | 1% | –
Cc1ccnc(NS(=O)(=O)c2ccc(N)cc2)n1 [SULFAMERAZINE] | 2% | –
Cc1nnc(NS(=O)(=O)c2ccc(N)cc2)s1 [SULFAMETHIZOLE] | 2% | –
Cc1cc(NS(=O)(=O)c2ccc(N)cc2)no1 [SULFAMETHOXAZOLE] | 1% | –
Nc1ccc(S(=O)(=O)Nc2cnc3ccccc3n2)cc1 [SULFAQUINOXALINE SODIUM] | 1% | –
O=C(O)c1cc(/N=N/c2ccc(S(=O)(=O)Nc3ccccn3)cc2)ccc1O [SULFASALAZINE] | 5% | –
O=C1C(CC[S+]([O-])c2ccccc2)C(=O)N(c2ccccc2)N1c1ccccc1 (stereo not shown) [SULFINPYRAZONE] | 129% | –
CC(=O)N(c1onc(C)c1C)S(=O)(=O)c1ccc(N)cc1 [SULFISOXAZOLE ACETYL] | 4% | –
Cc1noc(NS(=O)(=O)c2ccc(N)cc2)c1C [SULFISOXAZOLE] | 1% | –
CCCCCCCCNC(C)C(O)c1ccc(SC(C)C)cc1 (stereo not shown) [SULOCTIDIL] | 0% | –
CCN1CCCC1CNC(=O)c1cc(S(N)(=O)=O)ccc1OC (stereo not shown) [SULPIRIDE] | 83% | –
Cc1ccc(C(=O)Nc2ccc(S(=O)(=O)O)c3cc(S(=O)(=O)O)cc(S(=O)(=O)O)c23)cc1NC(=O)c1cccc(NC(=O)Nc2cccc(C(=O)Nc3cc(C(=O)Nc4ccc(S(=O)(=O)O)c5cc(S(=O)(=O)O)cc(S(=O)(=O)O)c45)ccc3C)c2)c1 [SURAMIN] | 110% | –
CCCCC1(COC(=O)CCC(=O)O)C(=O)N(c2ccccc2)N(c2ccccc2)C1=O [SUXIBUZONE] | 8% | –
Cc1c(S(=O)(=O)[O-])oc2c1C(=O)C(=O)c1c-2ccc2c1CCCC2(C)C.[Na+] [TANSHINONE IIA SULFONATE SODIUM] | – | Inhibition (%): 55
Cc1coc2c1C(=O)C(=O)c1c-2ccc2c1CCCC2(C)C [TANSHINONE IIA] | 50% | –
CC[C@H]1OC(=O)[C@H](C)C(=O)[C@H](C)[C@@H](O[C@@H]2O[C@H](C)C[C@H](N(C)C)[C@H]2O)[C@](C)(OC)C[C@@H](C)C(=O)[C@H](C)[C@H]2N(CCCCn3cnc(-c4cccnc4)c3)C(=O)O[C@]12C [TELITHROMYCIN] | 7% | –
